Laboratory results from US20210269434A1, “TRICYCLIC COMPOUNDS AS INHIBITORS OF KRAS” (Incyte Corporation, priority 2020, published 2021).
Where two headings read alike, the source gives them in different places.

Columns and labels:
[1] = tested on: MIA PaCa-2 (KRAS G12C) cells; assay: Cellular pERK HTRF assay (KRAS_G12C pERK); format: cell-based, human; conditions: read-out: G12C_pERK
Experimental: Example C: Cellular pERK HTRF Assay
MIA PaCa-2 (KRAS G12C; ATCC® CRL-1420), A427 (KRAS G12D; ATCC® HTB53), HPAF-II (KRAS G12D; ATCC® CRL-1997) and NCI-H838 (KRAS WT; ATCC® CRL-5844) cells are purchased from ATCC and maintained in RPMI 1640 media supplemented with 10% FBS (Gibco/Life Technologies). The cells are plated at 5000 cells per well (8 uL) into Greiner 384-well low volume, flat-bottom, tissue culture treated white plates and incubated overnight at 37° C., 5% CO2. The next morning, test compound stock solutions are diluted in media at 3× the final concentration, and 4 uL are added to the cells. The plate is mixed by gentle rotation for 30 seconds (250 rpm) at room temperature. The cells are incubated with the KRAS G12C and G12D compounds for 4 hours or 2 hours respectively at 37° C., 5% CO2.
4 uL of 4× lysis buffer with blocking reagent (1:25) (Cisbio) are added to each well and plates are rotated gently (300 rpm) for 30 minutes at room temperature. 4 uL per well of Cisbio anti Phospho-ERK 1/2 d2 is mixed with anti Phospho-ERK 1/2 Cryptate (1:1) are added to each well, mixed by rotation and incubated overnight in the dark at room temperature. Plates are read on the Pherastar plate reader at 665 nm and 620 nm wavelengths. IC50 determination is performed by fitting the curve of inhibitor percent inhibition versus the log of the inhibitor concentration using the GraphPad Prism 7 software.

KRAS G12C = KRAS G12C (Homo sapiens, UniProt P01116, G12C); assay: GDP-GTP exchange assay (KRAS_G12C exchange); format: biochemical; conditions: bodipy-GDP loaded KRAS G12C 2.5 nM, SOS1 150 nM, GppNHp; 2 hours pre-incubation, 2 hours reaction; read-out: G12C_exchange
KRAS G12C, sequence (P01116 1-188 isoform P01116-2 G12C): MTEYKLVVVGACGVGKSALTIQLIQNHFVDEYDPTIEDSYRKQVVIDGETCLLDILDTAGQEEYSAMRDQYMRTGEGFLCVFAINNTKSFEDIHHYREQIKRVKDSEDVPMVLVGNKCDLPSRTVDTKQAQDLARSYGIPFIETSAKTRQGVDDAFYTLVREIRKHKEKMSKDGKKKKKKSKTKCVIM
Experimental: Example A. GDP-GTP Exchange Assay
The inhibitor potency of the exemplified compounds was determined in a fluorescence based guanine nucleotide exchange assay, which measures the exchange of bodipy-GDP (fluorescently labeled GDP) for GppNHp (Non-hydrolyzable GTP analog) to generate the active state of KRAS in the presence of SOS1 (guanine nucleotide exchange factor). Inhibitors were serially diluted in DMSO and a volume of 0.1 μL was transferred to the wells of a black low volume 384-well plate. 5 μL/well volume of bodipy-loaded KRAS G12C diluted to 5 nM in assay buffer (25 mM Hepes pH 7.5, 50 mM NaCl, 10 mM MgCl2 and 0.01% Brij-35) was added to the plate and pre-incubated with inhibitor for 2 hours at ambient temperature. Appropriate controls (enzyme with no inhibitor or with a G12C inhibitor (AMG-510)) were included on the plate. The exchange was initiated by the addition of a 5 μL/well volume containing 1 mM GppNHp and 300 nM SOS1 in assay buffer. The 10 μL/well reaction concentration of the bodipy-loaded KRAS G12C, GppNHp, and SOS1 were 2.5 nM, 500 uM, and 150 nM, respectively. The reaction plates were incubated at ambient temperature for 2 hours, a time estimated for complete GDP-GTP exchange in the absence of inhibitor. For the KRAS G12D and G12V mutants, similar guanine nucleotide exchange assays were used with 2.5 nM as final concentration for the bodipy loaded KRAS proteins and with 4 hours and 3 hours incubation after adding GppNHp-SOS1 mixture for G12D and G12V respectively. A cyclic peptide described to selectively bind G12D mutant (Sakamoto et al., BBRC 484.3 (2017), 605-611) or internal compounds with confirmed binding were used as positive controls in the assay plates. Fluorescence intensities were measured on a PheraStar plate reader instrument (BMG Labtech) with excitation at 485 nm and emission at 520 nm.
Either GraphPad prism or XLfit was used to analyze the data. The IC50 values were derived by fitting the data to a four parameter logistic equation producing a sigmoidal dose-response curve with a variable Hill coefficient. Prism equation: Y=Bottom+(Top−Bottom)/(1+10^((Log lC50−X)*Hill slope)); XLfit equation: Y=(A+((B−A)/(1+((X/C)^D)))) where X is the logarithm of inhibitor concentration and Y is the response.

[2] = Homo sapiens, MIA PaCa-2, 4 hours incubation

SMILES: C=CC(=O)N1CCC(n2cnc3c(OC[C@@H]4CCCN4C)nc4c(F)c(-c5c(C)ccc6[nH]ncc56)c(Cl)cc4c32)CC1CC#N (single isomer, unassigned) [Example 37a]
- IC50 [1, 2]: ≤ 100 nM
- IC50 (KRAS G12C): ≤ 100 nM

SMILES: C=CC(=O)N1CCC(n2cnc3c(OC[C@@H]4CCCN4C)nc4c(F)c(-c5cc(O)ccc5C)c(Cl)cc4c32)CC1CC#N (single isomer, unassigned) [Example 39a]
- IC50 [1, 2]: ≤ 100 nM
- IC50 (KRAS G12C): ≤ 100 nM

SMILES: C=CC(=O)N1CCC(n2cnc3c(OC[C@@H]4CCCN4C)nc4c(F)c(-c5c(C)c(Cl)cc6[nH]ncc56)c(Cl)cc4c32)CC1CC#N (single isomer, unassigned) [Example 40a]
- IC50 [1, 2]: ≤ 100 nM
- IC50 (KRAS G12C): ≤ 100 nM

SMILES: C=CC(=O)N1CC[C@H](n2cnc3c(N4CC(N(C)C)C4)nc4c(F)c(-c5cc(O)cc6ccccc56)c(Cl)cc4c32)C[C@H]1CC#N (single isomer, unassigned) [Example 47a]
- IC50 [1, 2]: ≤ 100 nM
- IC50 (KRAS G12C): ≤ 100 nM

SMILES: C=CC(=O)N1CC[C@H](n2cnc3c(N4CC(N(C)C)C4)nc4c(F)c(-c5cc(O)cc(C)c5C)c(Cl)cc4c32)C[C@H]1CC#N (single isomer, unassigned) [Example 52a]
- IC50 [1, 2]: ≤ 100 nM
- IC50 (KRAS G12C): ≤ 100 nM

SMILES: C=CC(=O)N1CC[C@H](n2cnc3c(N4CC(N(C)C)C4)nc4c(F)c(-c5cc(O)ccc5C)c(Cl)cc4c32)C[C@H]1CC#N (single isomer, unassigned) [Example 53a]
- IC50 [1, 2]: ≤ 100 nM
- IC50 (KRAS G12C): ≤ 100 nM

SMILES: C=CC(=O)N1CC[C@H](n2cnc3c(N4CC(N(C)C)C4)nc4c(F)c(-c5cc(O)ccc5Cl)c(Cl)cc4c32)C[C@H]1CC#N (single isomer, unassigned) [Example 54a]
- IC50 [1, 2]: ≤ 100 nM
- IC50 (KRAS G12C): ≤ 100 nM

SMILES: C=CC(=O)N1CC[C@H](n2cnc3c(N4CC(N(C)C)C4)nc4c(F)c(-c5ccc(F)c6cccnc56)c(Cl)cc4c32)C[C@H]1CC#N (single isomer, unassigned) [Example 64a]
- IC50 [1, 2]: ≤ 100 nM
- IC50 (KRAS G12C): ≤ 100 nM

SMILES: C=CC(=O)N1CC[C@H](n2cnc3c(N4CC(N(C)C)C4)nc4c(F)c(-c5cccc6cnccc56)c(Cl)cc4c32)C[C@H]1CC#N (single isomer, unassigned) [Example 70a]
- IC50 [1, 2]: ≤ 100 nM
- IC50 (KRAS G12C): ≤ 100 nM

SMILES: C=CC(=O)N1CC[C@H](n2cnc3c(N4CC(N(C)C)C4)nc4c(F)c(-c5cccc6ccncc56)c(Cl)cc4c32)C[C@H]1CC#N (single isomer, unassigned) [Example 71a]
- IC50 [1, 2]: ≤ 100 nM
- IC50 (KRAS G12C): ≤ 100 nM

SMILES: C=CC(=O)N1CC[C@H](n2cnc3c(N4CC(N(C)C)C4)nc4c(F)c(-c5cccc6ccncc56)c(Cl)cc4c32)C[C@H]1CC#N (single isomer, unassigned) [Example 71b]
- IC50 ([1]; 4 hours incubation): ≤ 100 nM
- IC50 (KRAS G12C): ≤ 100 nM

SMILES: C=CC(=O)N1CC[C@H](n2cnc3c(N4CC(N(C)C)C4)nc4c(F)c(-c5cccc6cccnc56)c(Cl)cc4c32)C[C@H]1CC#N (single isomer, unassigned) [Example 72a]
- IC50 [1, 2]: ≤ 100 nM
- IC50 (KRAS G12C): ≤ 100 nM

SMILES: C=CC(=O)N1CC[C@H](n2cnc3c(N4CC(N(C)C)C4)nc4c(F)c(-c5cncc6ccccc56)c(Cl)cc4c32)C[C@H]1CC#N (single isomer, unassigned) [Example 73a]
- IC50 [1, 2]: ≤ 100 nM
- IC50 (KRAS G12C): ≤ 100 nM

SMILES: C=CC(=O)N1CC[C@H](n2cnc3c(N4CC(N(C)C)C4)nc4c(F)c(-c5cncc6ccccc56)c(Cl)cc4c32)C[C@H]1CC#N (single isomer, unassigned) [Example 73b]
- IC50 ([1]; 4 hours incubation): ≤ 100 nM
- IC50 (KRAS G12C): ≤ 100 nM

SMILES: C=CC(=O)N1CC[C@H](n2cnc3c(N4CC(N(C)C)C4)nc4c(F)c(-c5ccnc6ccccc56)c(Cl)cc4c32)C[C@H]1CC#N (single isomer, unassigned) [Example 74a]
- IC50 [1, 2]: ≤ 100 nM
- IC50 (KRAS G12C): ≤ 100 nM

SMILES: COC/C=C/C(=O)N1CC[C@H](n2cnc3c(N4CC(C)(N(C)C)C4)nc4c(F)c(-c5c(C)c(Cl)cc6[nH]ncc56)c(Cl)cc4c32)C[C@H]1CC#N (single isomer, unassigned) [Example 80a]
- IC50 [1, 2]: ≤ 100 nM
- IC50 (KRAS G12C): ≤ 100 nM

SMILES: CC#CC(=O)N1CC[C@H](n2nnc3c(OC[C@@H]4CCCN4C)nc4c(F)c(-c5cccc(Cl)c5C)c(Cl)cc4c32)C[C@H]1CC#N (single isomer, unassigned) [Example 87a]
- IC50 [1, 2]: ≤ 100 nM
- IC50 (KRAS G12C): ≤ 100 nM

SMILES: C=CC(=O)N1CC[C@H](n2cnc3c(OC[C@@H]4CCCN4C)nc4c(F)c(-c5cccc(Cl)c5C)c(Cl)cc4c32)C[C@H]1CC#N (single isomer, unassigned) [Example 118a]
- IC50 [1, 2]: ≤ 100 nM
- IC50 (KRAS G12C): ≤ 100 nM

SMILES: C=CC(=O)N1CC[C@H](n2cnc3c(OC[C@H]4CCCN4C)nc4c(F)c(-c5cccc(Cl)c5C)c(Cl)cc4c32)C[C@H]1CC#N (single isomer, unassigned) [Example 119a]
- IC50 [1, 2]: ≤ 100 nM
- IC50 (KRAS G12C): ≤ 100 nM

SMILES: C=CC(=O)N1CC[C@H](n2nnc3c(N4CC(N(C)C)C4)nc4c(F)c(-c5c(C)c(Cl)cc6c5cnn6C)c(Cl)cc4c32)C[C@H]1CC#N (single isomer, unassigned) [Example 150a]
- IC50 [1, 2]: ≤ 100 nM
- IC50 (KRAS G12C): ≤ 100 nM

SMILES: COC/C=C/C(=O)N1CC[C@H](n2nnc3c(OC[C@@H]4CCCN4C)nc4c(F)c(-c5ccccc5C(F)(F)F)c(C)cc4c32)C[C@H]1CC#N (single isomer, unassigned) [Example 157a]
- IC50 [1, 2]: ≤ 100 nM
- IC50 (KRAS G12C): ≤ 100 nM

SMILES: Cc1cc2c(nc(OC[C@@H]3CCCN3C)c3nnn([C@H]4CCN(C(=O)/C=C/CF)[C@H](CC#N)C4)c32)c(F)c1-c1ccccc1C(F)(F)F (single isomer, unassigned) [Example 159a]
- IC50 [1, 2]: ≤ 100 nM
- IC50 (KRAS G12C): ≤ 100 nM

SMILES: C=CC(=O)N1CC[C@H](n2nnc3c(OC[C@@H]4CCCN4C)nc4c(F)c(-c5ccccc5C(F)(F)F)c(C)cc4c32)C[C@H]1CC#N (single isomer, unassigned) [Example 160a]
- IC50 [1, 2]: ≤ 100 nM
- IC50 (KRAS G12C): ≤ 100 nM

SMILES: Cc1cc2c(nc(N3CC(N(C)C)C3)c3nnn([C@H]4CCN(C(=O)/C=C/CN(C)C)[C@H](CC#N)C4)c32)c(F)c1-c1ccccc1C(F)(F)F (single isomer, unassigned) [Example 163a]
- IC50 [1, 2]: ≤ 100 nM
- IC50 (KRAS G12C): ≤ 100 nM

SMILES: C=CC(=O)N1CC[C@H](n2nnc3c(N4CC(N(C)C)C4)nc4c(F)c(-c5ccccc5C(F)(F)F)c(C)cc4c32)C[C@H]1CC#N (single isomer, unassigned) [Example 165a]
- IC50 [1, 2]: ≤ 100 nM
- IC50 (KRAS G12C): ≤ 100 nM

SMILES: Cc1cc2c(nc(-n3ccnc3C)c3nnn([C@H]4CCN(C(=O)/C=C/CN(C)C)[C@H](CC#N)C4)c32)c(F)c1-c1ccccc1C(F)(F)F (single isomer, unassigned) [Example 167a]
- IC50 [1, 2]: ≤ 100 nM
- IC50 (KRAS G12C): ≤ 100 nM

SMILES: Cc1cc2c(nc(OC[C@@H]3CCCN3C)c3nnn([C@H]4CCN(C(=O)/C=C/C(F)F)[C@H](CC#N)C4)c32)c(F)c1-c1cccnc1C(F)(F)F (single isomer, unassigned) [Example 168a]
- IC50 [1, 2]: ≤ 100 nM
- IC50 (KRAS G12C): ≤ 100 nM

SMILES: CC#CC(=O)N1CC[C@H](n2nnc3c(N4CC(N(C)C)C4)nc4c(F)c(-c5c(C)c(Cl)cc6[nH]ncc56)c(Cl)cc4c32)C[C@H]1CC#N (single isomer, unassigned) [Example 178a]
- IC50 [1, 2]: ≤ 100 nM
- IC50 (KRAS G12C): ≤ 100 nM

SMILES: C=CC(=O)N1CC[C@H](n2nnc3c(N4CC(N(C)C)C4)nc4c(F)c(-c5c(C)c(Cl)cc6[nH]ncc56)c(Cl)cc4c32)C[C@H]1CC#N (single isomer, unassigned) [Example 185a]
- IC50 [1, 2]: ≤ 100 nM
- IC50 (KRAS G12C): ≤ 100 nM
